Source: PubChem BioAssay (NCI)
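1) Cells in 96-well plates. 2) Compound, 48 h, 5 concentrations. 3) Linear interpolation between surrounding doses. 4) Unreached endpoint = highest concentration. TGI denotes the concentration required for complete inhibition of growth.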

Experiments:
Assay in all cases: inhibition of tumour cell growth, NCI panel, 48 h
786-0 renal = test system: 786-0 renal
A549 NSCLC = test system: A549 NSCLC
ACHN renal = test system: ACHN renal
BT-549 breast = test system: BT-549 breast
CAKI-1 renal = test system: CAKI-1 renal
CCRF-CEM leukemia = test system: CCRF-CEM leukemia
COLO 205 colon = test system: COLO 205 colon
DU-145 prostate = test system: DU-145 prostate
HCC-2998 colon = test system: HCC-2998 colon
HCT-116 colon = test system: HCT-116 colon
HCT-15 colon = test system: HCT-15 colon
HL-60(TB) leukemia = test system: HL-60(TB) leukemia
HOP-62 NSCLC = test system: HOP-62 NSCLC
HOP-92 NSCLC = test system: HOP-92 NSCLC
HS 578T breast = test system: HS 578T breast
K-562 leukemia = test system: K-562 leukemia
KM12 colon = test system: KM12 colon
LOX IMVI melanoma = test system: LOX IMVI melanoma
M14 melanoma = test system: M14 melanoma
MALME-3M melanoma = test system: MALME-3M melanoma
MCF7 breast = test system: MCF7 breast
MDA-MB-231 breast = test system: MDA-MB-231 breast
MDA-MB-435 = test system: MDA-MB-435
MDA-N = test system: MDA-N
MOLT-4 leukemia = test system: MOLT-4 leukemia
NCI-H460 lung = test system: NCI-H460 lung
NCI-H522 lung = test system: NCI-H522 lung
NCI/ADR-RES ovarian = test system: NCI/ADR-RES ovarian
OVCAR-4 ovarian = test system: OVCAR-4 ovarian
OVCAR-5 ovarian = test system: OVCAR-5 ovarian
OVCAR-8 ovarian = test system: OVCAR-8 ovarian
PC-3 prostate = test system: PC-3 prostate
RPMI-8226 leukemia = test system: RPMI-8226 leukemia
RXF 393 renal = test system: RXF 393 renal
SF-268 CNS = test system: SF-268 CNS
SF-295 CNS = test system: SF-295 CNS
SF-539 CNS = test system: SF-539 CNS
SK-MEL-2 melanoma = test system: SK-MEL-2 melanoma
SK-MEL-28 melanoma = test system: SK-MEL-28 melanoma
SK-MEL-5 melanoma = test system: SK-MEL-5 melanoma
SK-OV-3 ovarian = test system: SK-OV-3 ovarian
SN12C renal = test system: SN12C renal
SNB-19 CNS = test system: SNB-19 CNS
SNB-75 CNS = test system: SNB-75 CNS
SR leukemia = test system: SR leukemia
SW-620 colon = test system: SW-620 colon
T-47D breast = test system: T-47D breast
TK-10 renal = test system: TK-10 renal
U251 CNS = test system: U251 CNS
UACC-257 melanoma = test system: UACC-257 melanoma
UACC-62 melanoma = test system: UACC-62 melanoma
UO-31 renal = test system: UO-31 renal
A498 renal = test system: A498 renal
EKVX NSCLC = test system: EKVX NSCLC
HT29 colon = test system: HT29 colon
IGROV1 ovarian = test system: IGROV1 ovarian
NCI-H23 lung = test system: NCI-H23 lung
OVCAR-3 ovarian = test system: OVCAR-3 ovarian

## CC(C)(C)C(=O)C(N)C(=O)C(C)(C)C
786-0 renal
  TGI: > 100 µM
A549 NSCLC
  TGI: > 100 µM
ACHN renal
  TGI: > 100 µM
BT-549 breast
  TGI: > 100 µM
CAKI-1 renal
  TGI: > 100 µM
CCRF-CEM leukemia
  TGI: > 100 µM
COLO 205 colon
  TGI: > 100 µM
DU-145 prostate
  TGI: > 100 µM
HCC-2998 colon
  TGI: > 100 µM
HCT-116 colon
  TGI: > 100 µM
HCT-15 colon
  TGI: > 100 µM
HL-60(TB) leukemia
  TGI: > 100 µM
HOP-62 NSCLC
  TGI: > 100 µM
HOP-92 NSCLC
  TGI: > 100 µM
HS 578T breast
  TGI: > 100 µM
K-562 leukemia
  TGI: > 100 µM
KM12 colon
  TGI: > 100 µM
LOX IMVI melanoma
  TGI: > 100 µM
M14 melanoma
  TGI: > 100 µM
MALME-3M melanoma
  TGI: > 100 µM
MCF7 breast
  TGI: > 100 µM
MDA-MB-231 breast
  TGI: > 100 µM
MDA-MB-435
  TGI: > 100 µM
MDA-N
  TGI: > 100 µM
MOLT-4 leukemia
  TGI: > 100 µM
NCI-H460 lung
  TGI: > 100 µM
NCI-H522 lung
  TGI: > 100 µM
NCI/ADR-RES ovarian
  TGI: > 100 µM
OVCAR-4 ovarian
  TGI: > 100 µM
OVCAR-5 ovarian
  TGI: > 100 µM
OVCAR-8 ovarian
  TGI: > 100 µM
PC-3 prostate
  TGI: > 100 µM
RPMI-8226 leukemia
  TGI: > 100 µM
RXF 393 renal
  TGI: > 100 µM
SF-268 CNS
  TGI: > 100 µM
SF-295 CNS
  TGI: > 100 µM
SF-539 CNS
  TGI: > 100 µM
SK-MEL-2 melanoma
  TGI: > 100 µM
SK-MEL-28 melanoma
  TGI: > 100 µM
SK-MEL-5 melanoma
  TGI: > 100 µM
SK-OV-3 ovarian
  TGI: > 100 µM
SN12C renal
  TGI: > 100 µM
SNB-19 CNS
  TGI: > 100 µM
SNB-75 CNS
  TGI: > 100 µM
SR leukemia
  TGI: > 100 µM
SW-620 colon
  TGI: > 100 µM
T-47D breast
  TGI: > 100 µM
TK-10 renal
  TGI: > 100 µM
U251 CNS
  TGI: > 100 µM
UACC-257 melanoma
  TGI: > 100 µM
UACC-62 melanoma
  TGI: > 100 µM
UO-31 renal
  TGI: > 100 µM

## c1csc(-c2cc(-c3ccsc3)cs2)c1
786-0 renal
  TGI: > 100 µM
A498 renal
  TGI: > 100 µM
A549 NSCLC
  TGI: > 100 µM
ACHN renal
  TGI: > 100 µM
BT-549 breast
  TGI: > 100 µM
CAKI-1 renal
  TGI: > 100 µM
CCRF-CEM leukemia
  TGI: > 100 µM
COLO 205 colon
  TGI: > 100 µM
DU-145 prostate
  TGI: > 100 µM
EKVX NSCLC
  TGI: > 100 µM
HCC-2998 colon
  TGI: > 100 µM
HCT-116 colon
  TGI: > 100 µM
HCT-15 colon
  TGI: > 100 µM
HL-60(TB) leukemia
  TGI: > 100 µM
HOP-62 NSCLC
  TGI: > 100 µM
HOP-92 NSCLC
  TGI: > 100 µM
HS 578T breast
  TGI: > 100 µM
HT29 colon
  TGI: > 100 µM
IGROV1 ovarian
  TGI: > 100 µM
K-562 leukemia
  TGI: > 100 µM
KM12 colon
  TGI: > 100 µM
LOX IMVI melanoma
  TGI: > 100 µM
M14 melanoma
  TGI: > 100 µM
MCF7 breast
  TGI: > 100 µM
MDA-MB-231 breast
  TGI: > 100 µM
MDA-MB-435
  TGI: > 100 µM
MDA-N
  TGI: > 100 µM
MOLT-4 leukemia
  TGI: > 100 µM
NCI-H23 lung
  TGI: 93.8 µM
NCI-H460 lung
  TGI: > 100 µM
NCI/ADR-RES ovarian
  TGI: > 100 µM
OVCAR-3 ovarian
  TGI: > 100 µM
OVCAR-4 ovarian
  TGI: > 100 µM
OVCAR-5 ovarian
  TGI: > 100 µM
PC-3 prostate
  TGI: > 100 µM
RPMI-8226 leukemia
  TGI: > 100 µM
RXF 393 renal
  TGI: > 100 µM
SF-268 CNS
  TGI: > 100 µM
SF-295 CNS
  TGI: > 100 µM
SF-539 CNS
  TGI: > 100 µM
SK-MEL-2 melanoma
  TGI: > 100 µM
SK-MEL-28 melanoma
  TGI: > 100 µM
SK-MEL-5 melanoma
  TGI: > 100 µM
SK-OV-3 ovarian
  TGI: > 100 µM
SN12C renal
  TGI: > 100 µM
SNB-75 CNS
  TGI: > 100 µM
SR leukemia
  TGI: > 100 µM
SW-620 colon
  TGI: > 100 µM
T-47D breast
  TGI: > 100 µM
TK-10 renal
  TGI: > 100 µM
U251 CNS
  TGI: > 100 µM
UACC-257 melanoma
  TGI: > 100 µM
UACC-62 melanoma
  TGI: > 100 µM
UO-31 renal
  TGI: > 100 µM
